Like-named read-outs stand apart in the source and are kept apart here.
Tests used:
dermal inflammation = details: cumulative weekly doses of 0.35 mg/kg; cited from earlier work
[1] = target: T1, partially purified chicken liver DHFR (Gallus gallus, UniProt P00378); experiment: radioligand DHFR binding assay
T1 sequence (P00378 1-189): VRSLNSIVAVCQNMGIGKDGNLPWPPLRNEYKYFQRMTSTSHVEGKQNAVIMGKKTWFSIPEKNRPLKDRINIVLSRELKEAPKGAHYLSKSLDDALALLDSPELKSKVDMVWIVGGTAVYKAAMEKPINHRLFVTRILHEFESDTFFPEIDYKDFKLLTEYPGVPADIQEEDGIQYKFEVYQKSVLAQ
Method: 16:1458, 1998]. […] After the standard curve is established, a portion of the 200 μM supernatant prepared above for an aminopterin tablet is further diluted 10,000 using two serial 100-fold dilutions with water to provide an approximately 20 nM solution of aminopterin. The DHFR assay is performed with 100 μL of the 20 nM solution, as well as several 2-fold serial dilutions, and the result expressed as pmol/ml aminopterin. The total number of pmol of aminopterin is calculated using the relationship, pmol/ml×10,000×11.35. The total number of mg in the tablet is then calculated using the relationship, total pmol×(10^−6 μmole/pmol)×0.44 mg/μmole.

[2] = tested on: chronic progressive multiple sclerosis; experiment: randomized, placebo-controlled clinical trial in chronic progressive multiple sclerosis; type: in vivo, human
Method: A prophetic randomized, double-blinded, placebo-controlled, clinical trial of low-dose, weekly, oral aminopterin is performed in 60 patients with clinically definite chronic progressive multiple sclerosis (MS) attending a referral-based outpatient MS clinic. Study patients are 21 to 60 years old with a disease duration of longer than 1 year. Patients' Expanded Disability Status Scale scores were 3.0 to 6.5 (ambulatory with moderate disability). Patients are first stratified by Expanded Disability Status Scale scores, 3.0 to 5.5 and 6.0 to 6.5, and then were randomized to receive aminopterin or placebo treatment. Treatment consists of weekly, oral, low-dose (1.0-2.0 mg) aminopterin or placebo for 2 years, followed by observation for as long as 1 year. A composite outcome measurement instrument is used and consists of (1) Expanded Disability Status Scale (EDSS), (2) ambulation index, (3) Box and Block Test, and (4) 9-Hole Peg Test. Failure of therapy is indicated by a designated change that is sustained for more than 2 months in one or more components of this composite measure.

[3] = tested on: carrageenan-induced inflammation in air pouches; experiment: duration of efficacy in the murine air-pouch model after cessation of 4 weeks of dosing; type: in vivo, mice; details: aminopterin 0.05 mg/kg, methotrexate 1.0 mg/kg
Method: We therefore examined the rate at which anti-inflammatory activity was lost in the air-pouch model after the cessation of 4 weeks of dosing at the maximally efficacious dose (FIG. 2).
On day 25 the air pouches were re-inflated with 1.5 ml of air. Pouches were re-inflated as needed to maintain them.

[4] = tested on: neutrophils that accumulated in the carrageenan-treated air pouches
Method: J. Clin. Invest., 1993. 92(6):2675-82].
A separate group of 5 animals was given vehicle by ip injection on the same days (0.9% saline, control, n=5). On day 16, air pouches were induced on the animals by injecting 3 ml of air subcutaneously on the back. On day 22 (i.e. one day after the last dose of drug or vehicle), inflammation was induced by injection of 1 ml of a suspension of carrageenan (2% weight/volume in calcium- and magnesium-free PBS). The mice were put back in their cages and allowed to run free for 4 hours. […] After 4 hours, the animals were sacrificed, the pouches flushed with 2 ml of PBS and the exudates harvested. Aliquots were diluted 1:1 with methylene blue (0.01% w/v in PBS), and the cells were counted.

[5] = tested on: rheumatoid arthritis, psoriatic arthritis, uncomplicated psoriasis, and atopic dermatitis; details: 0.75-2 mg/day for approximately 1 week and greater; cited from earlier work
[6] = tested on: antigen-induced arthritis; details: cumulative weekly doses of >1.5 mg/kg; cited from earlier work
canine atopic dermatitis = tested on: canine atopic dermatitis
Method: […] Subjects were assessed at baseline and at weeks 2 and 4 of the trial, and every other week of the 1-year extension phase.
Subjects were assessed at baseline and at weeks 2 and 4.

ma104 cells = experiment: adenosine release from ma104 cells; type: cell-based; details: 8 hours incubation
Method: Various concentrations of aminopterin were incubated with ma104 cells for 8 hours, and the release of adenosine measured (FIG. 5).

psoriasis [7] = details: 329 patients, schedules of the 1955 study; cited from earlier work
adjuvant arthritis = details: cumulative weekly doses of 0.12 mg/kg; cited from earlier work
psoriasis [8] = details: cited from earlier work

For `Nc1nc(N)c2nc(CNc3ccc(C(=O)N[C@@H](CCC(=O)O)C(=O)O)cc3)cnc2n1` [aminopterin, 4-amino-pteroyl-L-glutamic acid], which efficacy (dermal inflammation) is on record?
Its efficacy is “demonstrated the efficacy”.

And the toxicity (dermal inflammation)?
The toxicity was “the animals became severely leucopenic and one subject died”.

And the “displacement of 3H-methotrexate and binding to DHFR, aminopterin vs methotrexate” value [1]?
Its value is “equivalent”.

What about the “toxicity in the treatment group” value ([2]; weekly oral 1.0-2.0 mg for 2 years) of the same compound?
Its value is “absence of clinically significant toxicity”.

What about the “progression of impairment (EDSS, ambulation index, Box and Block Test, 9-Hole Peg Test or composite)” value ([2]; weekly oral 1.0-2.0 mg for 2 years vs placebo) of the same compound?
The value was “Significantly less progression of impairment”.

And the “difference between aminopterin and methotrexate in rate of recovery of inflammation” value ([3]; 8, 12 or 22 days after last of 4 weekly ip doses)?
Its value is “no statistically significant difference”.

What about the duration of action ([3]; after last of 4 weekly ip doses) of the same compound?
The duration of action was “quite long”.

What about the “potency relative to methotrexate” value ([4]; ratio of EC50s, P<0.001) of the same compound?
Its value is 43 fold.

What about the “signs of toxicity at the end of the dosing period” value ([4]; weekly ip doses, aminopterin 0.0005-0.050 mg/kg, methotrexate 0.01-1.00 mg/kg) of the same compound?
The value was “no signs of toxicity”.

What about the “EC50 for diminishing the number of neutrophils accumulated in carrageenan-treated air pouches” value ([4]; weekly ip injection days 1, 7, 14, 21, carrageenan day 22, exudate after 4 hours) of the same compound?
The value was 0.0009 mg/kg/wk.

What about the toxic reactions [5] of the same compound?
The toxic reactions was “the majority of patients developed toxic reactions”.

What about the efficacy [6] of the same compound?
Its efficacy is “demonstrated the efficacy”.

What about the toxicity [6] of the same compound?
Its toxicity is “severe toxicity”.

What about the “median improvement from baseline in PVAS score” value (canine atopic dermatitis; 5 dogs, oral 0.01 mg/kg/week, 4 weeks, range −4 to +2) of the same compound?
The value was −4.

What about the “median improvement from baseline in CADESI score” value (canine atopic dermatitis; 5 dogs, oral 0.01 mg/kg/week, 4 weeks, range −11 to −91%) of the same compound?
Its value is −59%.

What about the “median improvement from baseline in composite CADESI×pruritis score” value (canine atopic dermatitis; 5 dogs, oral 0.01 mg/kg/week, 4 weeks, range −97 to +24%) of the same compound?
Its value is −60%.

What about the “clinical evidence of hematologic (CBC) or liver toxicity (LFTs)” value (canine atopic dermatitis; dogs treated up to 20 weeks at 0.01 mg/kg/week) of the same compound?
The value was “no clinical evidence of hematologic (CBC) or liver toxicity (LFTs)”.

And the “overall evaluation of efficacy by owners” value (canine atopic dermatitis; median score 2, range 1 to 4, oral 0.01 mg/kg/week, 4 weeks)?
The value was “fair (fair (25-50%))”.

What about the “overall evaluation of efficacy by clinicians” value (canine atopic dermatitis; median score 2, range 1 to 5, oral 0.01 mg/kg/week, 4 weeks) of the same compound?
The value was “fair (fair (25-50%))”.

What about the EC50 (ma104 cells) of the same compound?
Its EC50 is 0.5 nM.

And the “overall incidence of toxicity” value (psoriasis [7])?
The value was 21%.

And the efficacy (adjuvant arthritis)?
Its efficacy is “demonstrated the efficacy”.

What about the toxicity (adjuvant arthritis) of the same compound?
The toxicity was “severe toxicity”.

And the “frequency of toxic reactions” value (psoriasis [8]; schedule (i): 1 tablet (0.5 mg) daily for six days)?
Its value is 0%.

And the “frequency of toxic reactions” value (psoriasis [8]; schedule (ii): 1 tablet daily six days, one week rest, 1 tablet daily six days)?
Its value is 2.5%.

And the “frequency of toxic reactions” value (psoriasis [8]; schedule (iii): 1 tablet daily for 12 days)?
The value was 13%.

What about the “frequency of toxic reactions” value (psoriasis [8]; schedule (iv): 2 tablets daily for six days) of the same compound?
The value was 30%.

From patent publication US8129383B2, “Aminopterin dosage forms and methods for inflammatory disorders” (Aminopterin LLC, priority 2005, dated 2012)
